Reference: patent US5045302A, “Ligands and cationic complexes thereof with technetium-99m” (priority 1988, dated 1991)

Assay: Rat biodistribution of Tc-99m complexes

Blood (2 min p.i.) | Heart (2 min p.i.) | Heart/Blood Counts/Gram Ratio (2 min p.i.) | Heart/Liver Counts/Gram Ratio (2 min p.i.) | Liver (2 min p.i.) | Blood (60 min p.i.) | Heart (60 min p.i.) | Heart/Blood Counts/Gram Ratio (60 min p.i.) | Heart/Liver Counts/Gram Ratio (60 min p.i.) | Liver (60 min p.i.) | SMILES
11.7 % Injected dose/organ | 0.70 % Injected dose/organ | 1.04 | 0.39 | 25.2 % Injected dose/organ | 1.63 % Injected dose/organ | 0.48 % Injected dose/organ | 4.7 | 0.63 | 9.72 % Injected dose/organ | CCC(CP(CCP(CC(CC)OC)CC(CC)OC)CC(CC)OC)OC (centres unmarked) [Compound 12]
7.17 % Injected dose/organ | 1.21 % Injected dose/organ | 2.54 | 0.70 | 22.0 % Injected dose/organ | 1.77 % Injected dose/organ | 0.96 % Injected dose/organ | 7.9 | 1.25 | 10.6 % Injected dose/organ | CCOC(C)CP(CCP(CC(C)OCC)CC(C)OCC)CC(C)OCC (centres unmarked) [Compound 13]
15.4 % Injected dose/organ | 0.41 % Injected dose/organ | 0.41 | 0.98 | 5.80 % Injected dose/organ | 1.02 % Injected dose/organ | 0.05 % Injected dose/organ | 0.7 | 0.39 | 1.54 % Injected dose/organ | COCC(C)CP(CCP(CC(C)COC)CC(C)COC)CC(C)COC (centres unmarked) [Compound 14]
12.2 % Injected dose/organ | 0.62 % Injected dose/organ | 0.70 | 1.01 | 8.22 % Injected dose/organ | 0.67 % Injected dose/organ | 0.51 % Injected dose/organ | 9.4 | 2.48 | 2.24 % Injected dose/organ | COC(C)CCP(CCC(C)OC)CCP(CCC(C)OC)CCC(C)OC (centres unmarked) [Compound 15]
11.4 % Injected dose/organ | 0.79 % Injected dose/organ | 1.01 | 0.58 | 19.2 % Injected dose/organ | 1.58 % Injected dose/organ | 0.54 % Injected dose/organ | 4.69 | 0.96 | 7.71 % Injected dose/organ | COC(C)(C)CCP(CCP(CCC(C)(C)OC)CCC(C)(C)OC)CCC(C)(C)OC [Compound 16]
5.86 % Injected dose/organ | 1.14 % Injected dose/organ | 2.99 | 0.92 | 17.1 % Injected dose/organ | 1.03 % Injected dose/organ | 0.86 % Injected dose/organ | 13.9 | 1.59 | 7.88 % Injected dose/organ | COCC(COC)CP(CCP(CC(COC)COC)CC(COC)COC)CC(COC)COC [Compound 17]
24.2 % Injected dose/organ | 0.58 % Injected dose/organ | 0.37 | 0.24 | 35.1 % Injected dose/organ | 5.78 % Injected dose/organ | 0.41 % Injected dose/organ | 1.0 | 0.14 | 36.0 % Injected dose/organ | CCOCC(COCC)CP(CCP(CC(COCC)COCC)CC(COCC)COCC)CC(COCC)COCC [Compound 18]
18.8 % Injected dose/organ | 0.46 % Injected dose/organ | 0.37 | 1.29 | 3.27 % Injected dose/organ | 0.88 % Injected dose/organ | 0.03 % Injected dose/organ | 0.6 | 0.76 | 0.67 % Injected dose/organ | COC(CCP(CCC(OC)OC)CCP(CCC(OC)OC)CCC(OC)OC)OC [Compound 19]
7.14 % Injected dose/organ | 1.01 % Injected dose/organ | 1.95 | 0.50 | 24.50 % Injected dose/organ | 1.52 % Injected dose/organ | 0.81 % Injected dose/organ | 7.9 | 0.69 | 14.90 % Injected dose/organ | CCOC(CCP(CCC(OCC)OCC)CCP(CCC(OCC)OCC)CCC(OCC)OCC)OCC [Compound 20]
18.6 % Injected dose/organ | 0.37 % Injected dose/organ | 0.33 | 0.58 | 9.83 % Injected dose/organ | 1.14 % Injected dose/organ | 0.04 % Injected dose/organ | 0.5 | 0.26 | 1.95 % Injected dose/organ | C1OCC(CP(CCP(CC2COCO2)CC2COCO2)CC2COCO2)O1 (centres unmarked) [Compound 21]
10.4 % Injected dose/organ | 0.99 % Injected dose/organ | 1.20 | 0.79 | 15.7 % Injected dose/organ | 1.23 % Injected dose/organ | 1.00 % Injected dose/organ | 12.3 | 3.99 | 3.41 % Injected dose/organ | CC1(C)OCC(CP(CCP(CC2COC(C)(C)O2)CC2COC(C)(C)O2)CC2COC(C)(C)O2)O1 (centres unmarked) [Compound 22]
3.92 % Injected dose/organ | 1.82 % Injected dose/organ | 6.98 | 1.74 | 16.4 % Injected dose/organ | 0.55 % Injected dose/organ | 1.42 % Injected dose/organ | 39.7 | 2.62 | 8.56 % Injected dose/organ | C1COC(CP(CCP(CC2CCCO2)CC2CCCO2)CC2CCCO2)C1 (centres unmarked) [Compound 24]
18.10 % Injected dose/organ | 0.40 % Injected dose/organ | 0.34 | 0.94 | 5.74 % Injected dose/organ | 1.51 % Injected dose/organ | 0.04 % Injected dose/organ | 0.41 | 0.34 | 1.60 % Injected dose/organ | C1CC(CP(CCP(CC2CCOCC2)CC2CCOCC2)CC2CCOCC2)CCO1 [Compound 25]
9.0 % Injected dose/organ | 0.82 % Injected dose/organ | 1.62 | 1.28 | 11.0 % Injected dose/organ | 0.73 % Injected dose/organ | 0.69 % Injected dose/organ | 15.5 | 3.93 | 2.94 % Injected dose/organ | CCOCCP(CCOC)CCP(CCOC)CCOCC (centres unmarked) [Compound 28]
8.75 % Injected dose/organ | 1.23 % Injected dose/organ | 2.26 | 0.95 | 18.6 % Injected dose/organ | 1.64 % Injected dose/organ | 1.15 % Injected dose/organ | 11.5 | 1.40 | 11.5 % Injected dose/organ | CCCOCCP(CCOC)CCP(CCOC)CCOCCC (centres unmarked) [Compound 29]
9.52 % Injected dose/organ | 0.73 % Injected dose/organ | 1.14 | 1.28 | 7.69 % Injected dose/organ | 0.34 % Injected dose/organ | 0.70 % Injected dose/organ | 27.4 | 4.24 | 1.89 % Injected dose/organ | CCOCCCP(CCOC)CCP(CCCOCC)CCOC (centres unmarked) [Compound 30]
6.88 % Injected dose/organ | 1.21 % Injected dose/organ | 3.05 | 0.84 | 25.0 % Injected dose/organ | 1.22 % Injected dose/organ | 0.99 % Injected dose/organ | 13.4 | 1.21 | 12.4 % Injected dose/organ | CCOCCP(CCOC(C)C)CCP(CCOCC)CCOC(C)C (centres unmarked) [Compound 31]
5.85 % Injected dose/organ | 0.85 % Injected dose/organ | 2.31 | 1.27 | 10.8 % Injected dose/organ | 0.38 % Injected dose/organ | 0.81 % Injected dose/organ | 33.2 | 7.46 | 1.78 % Injected dose/organ | CCOCCP(CCOCCF)CCP(CCOCC)CCOCCF (centres unmarked) [Compound 32]
17.9 % Injected dose/organ | 0.50 % Injected dose/organ | 0.43 | 0.16 | 39.4 % Injected dose/organ | 3.20 % Injected dose/organ | 0.29 % Injected dose/organ | 1.3 | 0.29 | 11.4 % Injected dose/organ | CCOCP(CCCP(COCC)COCC)COCC [Compound 33]
19.5 % Injected dose/organ | 0.41 % Injected dose/organ | 0.34 | 0.22 | 29.7 % Injected dose/organ | 4.56 % Injected dose/organ | 0.16 % Injected dose/organ | 0.52 | 0.21 | 10.9 % Injected dose/organ | CCOCCP(CCCP(CCOCC)CCOCC)CCOCC [Compound 34]
